Measured values published in article PMC6892603 (Bioorganic & medicinal chemistry letters, 2019).

Tests used:
[1] = tested on: T. gondii RH-dTom; assay: Activity against T. gondii RH-dTom; type: cell-based, Toxoplasma gondii
[2] = Aqueous solubility by nephelometry; type: physicochemical; conditions: for Sol6.5: pH 6.5 phosphate buffer
[3] = In vitro intrinsic clearance in human liver microsomes; type: in vitro ADME
[4] = biological target: T. cruzi CYP51 (Trypanosoma cruzi, UniProt Q7Z1V1); assay: T. cruzi CYP51 heme ligand binding; conditions: Soret band
[5] = tested on: panel of cancer cell lines; conditions: read-out: IC50 against a panel of cancer cell lines; previously reported; cited from earlier work
[6] = Cytotoxicity screen, growth inhibition of HFF cells; conditions: human
[7] = Cytotoxicity screen, growth inhibition of HC-04 cells; conditions: human
[8] = tested on: L. donovani MHOM-ET 67/L82; assay: Activity against L. donovani amastigotes, axenic assay
[9] = Cytotoxicity screen, growth inhibition of HEK 293T cells; conditions: human, Cytotoxicity IC50 HEK 293T, human kidney
[10] = tested on: Tulahuen C4 strain of Trypanosoma cruzi; assay: microbe, parasite or virus in culture; conditions: read-out: T. cruzi IC50

T. cruzi CYP51, sequence (Q7Z1V1 whole entry): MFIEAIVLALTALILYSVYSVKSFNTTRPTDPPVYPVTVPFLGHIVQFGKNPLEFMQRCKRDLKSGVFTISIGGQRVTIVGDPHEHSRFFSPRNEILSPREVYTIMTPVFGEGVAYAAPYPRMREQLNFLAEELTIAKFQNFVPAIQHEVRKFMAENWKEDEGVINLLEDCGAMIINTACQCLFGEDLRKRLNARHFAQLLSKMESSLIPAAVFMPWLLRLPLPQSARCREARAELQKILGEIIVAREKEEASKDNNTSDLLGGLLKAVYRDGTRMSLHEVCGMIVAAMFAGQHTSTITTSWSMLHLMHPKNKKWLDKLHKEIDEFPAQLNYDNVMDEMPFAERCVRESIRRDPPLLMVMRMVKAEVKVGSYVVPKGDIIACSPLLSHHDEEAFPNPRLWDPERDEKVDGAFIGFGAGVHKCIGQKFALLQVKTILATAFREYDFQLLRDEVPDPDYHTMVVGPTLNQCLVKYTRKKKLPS

| Sol6.5 [2] | Compound | microsomal CLint [3] | T. cruzi CYP51 spectral response [4] | IC50 [6] | IC50 [7] | also measured |
| --- | --- | --- | --- | --- | --- | --- |
| 12.5 to 25 µg/mL | O=C(Nc1cccnc1)c1ccc(CNS(=O)(=O)c2ccc(N3CCOCC3)cc2)cc1 [Compound 5] | 69 µL/min/mg |  |  | > 50 µM | Sol2.0 ([2]; 0.01 M HCl (approx. pH 2.0)): 50 to 100 µg/mL; IC50 [9]: < 1 µM |
|  | Cc1ncccc1NC(=O)c1ccc(CNS(=O)(=O)c2ccc(N3CCN(C)CC3)cc2)cc1 [Compound 14] |  | did not cause any changes |  |  |  |
| 25 to 50 µg/mL | CN1CCN(c2ccc(S(=O)(=O)NCc3ccc(-c4nc(-c5cccnc5)no4)cc3)cc2)CC1 [Compound 19] |  |  | > 50 µM | > 50 µM |  |
|  | O=C(Cn1ccnc1[N+](=O)[O-])NCc1ccccc1 [benznidazole] |  |  |  |  | IC50 [10]: 1.2 to 4.2 µM |

| Compound | Sol6.5 [2] | microsomal CLint [3] | T. cruzi CYP51 spectral response [4] | IC50 [6] | IC50 [7] | also measured |
| --- | --- | --- | --- | --- | --- | --- |
| CN1CCN(c2ccc(S(=O)(=O)NCc3ccc(C(=O)Nc4cccnc4)cc3)cc2)CC1 [Compound 2] | 25 to 50 µg/mL | 45 µL/min/mg | moderate type II spectral response | > 50 µM | > 50 µM | Effect on growth of Toxoplasma gondii [1]: no effect on the growth; IC50 [5]: 0.01 to 1 µM; Effect on growth of Leishmania donovani [8]: no effect on the growth |
